{"source": "patent US9757472B2", "about": "“Proteas stabilized antibacterial peptides for S. aureus” (Arizona Board of Regents on Behalf of Arizona State …, priority 2014, dated 2017)", "key": {"MSSA [1]": {"tested_on": "MSSA"}, "MSSA [2]": {"tested_on": "MSSA", "assay": "Minimum bactericidal concentration (MBC) / bactericidal activity against MSSA", "assay_type": "cell-based, S. aureus", "settings": "for MBC (μM) (MSSA): 14 h"}, "red blood cell [3]": {"tested_on": "red blood cell"}, "red blood cell [4]": {"tested_on": "red blood cell", "assay": "Hemolysis (H50)", "settings": "Table 3"}, "in vitro": {"assay": "in vitro", "settings": "mouse, serum"}}, "note": "Like-named read-outs stand apart in the source and are kept apart here. Starred links: 1 amine or outer side, 2 acyl side, 3 side chain; linkers in the order of their positions; H or OH if unused. Positions of bridges follow the written chain, without caps; N, C: chain ends. Non-standard residues stand in square brackets, D forms with d. Residues, ends and D or L forms follow the SMILES beside them. Chains are numbered I, II in the order given. No end group written: not given here. ξ: configuration not given here. *: point of attachment. Succinimide(1-C2H4CO,3-yl) = O=C1CC([*:1])C(=O)N1CCC(=O)[*:2]; Biotin = O=C1N[C@H]2[C@H](CS[C@H]2CCCCC(=O)*)N1; X2 = O=C1NC2CS[C@@H](CCCCC(=O)*)C2N1; X1 = O=C1NC2CSC(CCCCC(=O)*)C2N1; ξK = NCCCCC(N)C(=O)O; ξC = NC(CS)C(=O)O; ξS = NC(CO)C(=O)O; tBu = CC(C)(C)*", "data": [{"molecule": "I: CSG[dK][dK]RRHH[dR][dR][dK][dK]R[dR]HH[dR][dR]K / II: CSG[dK][dK]RRHH[dR][dR][dK][dK]R[dR]HH[dR][dR]K / III: [ξK]G[ξS][ξK][ξS]G[ξK](X2)G[ξC](tBu)-NH2 (linker I:1-III:1, II:1-III:N via Succinimide(1-C2H4CO,3-yl)) [D1-D1-Sc0, CSGkkRRHHrrkkRrHHrrK-Sc0-CSGkkRRHHrrkkRrHHrrK]", "values": [{"measurement": "MIC (μM) (MSSA)", "setting": "MSSA [1]", "result": 10, "unit": "µM"}, {"measurement": "MBC (μM) (MSSA)", "setting": "MSSA [2]", "result": 5, "unit": "µM"}, {"measurement": "H50", "setting": "red blood cell [3]", "result": ">500", "unit": "µM"}]}, {"molecule": "N=C(N)NCCC[C@H](NC(=O)CNC(=O)[C@H](CO)NC(=O)[C@@H](N)CS)C(=O)N[C@H](CCCNC(=N)N)C(=O)N[C@H](CCCCN)C(=O)N[C@H](CCCNC(=N)N)C(=O)N1CCC[C@H]1C(=O)N[C@H](CCCNC(=N)N)C(=O)N[C@H](CCCNC(=N)N)C(=O)N[C@H](CCCCN)C(=O)N[C@H](CCCNC(=N)N)C(=O)N1CCC[C@H]1C(=O)N[C@@H](CCCNC(=N)N)C(=O)N[C@H](CCCNC(=N)N)C(=O)N[C@H](CCCCN)C(=O)N[C@@H](CCCNC(=N)N)C(=O)N1CCC[C@H]1C(=O)N[C@@H](CCCNC(=N)N)C(=O)N[C@H](CCCNC(=N)N)C(=O)O", "note": "[D2, CSGRrkrPrrkrPRrkRPRr] (H-CSGR[dR][dK][dR]P[dR][dR][dK][dR]PR[dR][dK]RPR[dR]-OH; N-terminus and C-terminus assumed)", "values": [{"measurement": "MIC (μM) (MSSA)", "setting": "MSSA [1]", "result": "<50", "unit": "µM"}]}, {"molecule": "I: CSGEMWAIMPPIIKPDNKGH-NH2 / II: CSGR[dR][dK][dR]P[dR][dR][dK][dR]PR[dR][dK]RPR[dR]-NH2 / III: KGSKSGK(Biotin)GC(tBu)-NH2 (linker I:1-III:1, II:1-III:N via Succinimide(1-C2H4CO,3-yl)) [D2-88-SC0]", "values": [{"measurement": "H50", "setting": "red blood cell [4]", "result": ">500", "unit": "µM"}]}, {"molecule": "I: Ac-[dR]W[dR][dR]H[dK]H[dF][dK][dR]PH[dR][dK]H[dK][dR]GSC-NH2 / II: Ac-[dR]W[dR][dR]H[dK]H[dF][dK][dR]PH[dR][dK]H[dK][dR]GSC-NH2 / III: [ξK]G[ξS][ξK][ξS]G[ξK](X2)G[ξC](tBu)-NH2 (linker I:20-III:1, II:20-III:N via Succinimide(1-C2H4CO,3-yl)) [Ly-Ly-Sc0]", "values": [{"measurement": "MIC (μM) (MSSA)", "setting": "MSSA [1]", "result": 12.5, "unit": "µM"}, {"measurement": "MIC (μM) MRSA (USA300)", "setting": "MRSA", "result": 6.25, "unit": "µM"}, {"measurement": "MBC (μM) (MSSA)", "setting": "MSSA [2]", "result": 12.5, "unit": "µM"}, {"measurement": "H50", "setting": "red blood cell [3]", "result": ">500", "unit": "µM"}]}, {"molecule": "I: D[dR]IFH[dK]MQH[dK]PY[dK]I[dK][dK][dR]GSGGGK[ξK](X1)-NH2 / II: [dR]W[dR][dR]H[dK]HF[dK][dR]PH[dR][dK]H[dK][dR]GSG (amide I:23-II:C) [Synbody (4)]", "values": [{"measurement": "MIC, MSSA (n = 3)", "setting": "MSSA [1]", "result": 2.2, "unit": "µM"}, {"measurement": "MIC, MRSA (n = 2)", "setting": "MRSA", "result": 3.3, "unit": "µM"}, {"measurement": "half-life", "setting": "in vitro", "result": "~2.17", "unit": "h"}, {"measurement": "bactericidal activity against MSSA (in words)", "setting": "MSSA [2]", "result": "some bactericidal activity against MSSA"}, {"measurement": "H50 = concentration that causes 50% hemolysis", "setting": "red blood cell [3]", "result": ">200", "unit": "µM"}]}, {"molecule": "N=C(N)NCCC[C@H](NC(=O)[C@H](CCCNC(=N)N)NC(=O)[C@@H](CCCCN)NC(=O)[C@@H](CCCCN)NC(=O)CNC(=O)[C@H](CO)NC(=O)[C@@H](N)CS)C(=O)N[C@@H](Cc1c[nH]cn1)C(=O)N[C@@H](Cc1c[nH]cn1)C(=O)N[C@H](CCCNC(=N)N)C(=O)N[C@H](CCCNC(=N)N)C(=O)N[C@H](CCCCN)C(=O)N[C@H](CCCCN)C(=O)N[C@@H](CCCNC(=N)N)C(=O)N[C@H](CCCNC(=N)N)C(=O)N[C@@H](Cc1c[nH]cn1)C(=O)N[C@@H](Cc1c[nH]cn1)C(=O)N[C@H](CCCNC(=N)N)C(=O)N[C@H](CCCNC(=N)N)C(=O)N[C@@H](CCCCN)C(=O)O", "note": "[D1, CSGkkRRHHrrkkRrHHrrK] (H-CSG[dK][dK]RRHH[dR][dR][dK][dK]R[dR]HH[dR][dR]K-OH; N-terminus and C-terminus assumed)", "values": [{"measurement": "MIC (μM) (MSSA)", "setting": "MSSA [1]", "result": "<50", "unit": "µM"}]}, {"molecule": "I: CSGR[dR][dK][dR]P[dR][dR][dK][dR]PR[dR][dK]RPR[dR] / II: CSGR[dR][dK][dR]P[dR][dR][dK][dR]PR[dR][dK]RPR[dR] / III: [ξK]G[ξS][ξK][ξS]G[ξK](X2)G[ξC](tBu)-NH2 (linker I:1-III:1, II:1-III:N via Succinimide(1-C2H4CO,3-yl)) [D2-D2-Sc0, CSGRrkrPrrkrPRrkRPRr-Sc0-CSGRrkrPrrkrPRrkRPRr]", "values": [{"measurement": "MIC (μM) (MSSA)", "setting": "MSSA [1]", "result": 5, "unit": "µM"}, {"measurement": "MBC (μM) (MSSA)", "setting": "MSSA [2]", "result": 5, "unit": "µM"}, {"measurement": "H50", "setting": "red blood cell [3]", "result": ">500", "unit": "µM"}]}]}
